Experimental data published in patent US20220112479A1, “COMPOUNDS STABILIZING AMYLASES IN LIQUIDS” (BASF SE, priority 2018, published 2022).

Key:
Amy1=Stainzyme = test: amylase storage stability in liquid formulation (pNP release from Ethyliden-blocked-pNPG7); format: biochemical; parameters: key: % of activity in reference formulation at time 0; conditions: storage at 37° C.
Method: (§1) The storage stability of amylase was assessed at 37° C. Base test formulations were manufactured by making base formulations I to V by mixing the components according to Table 1. Amylases used: Amy1=Stainzyme, Amy2=Amplify, Amy3=Stainzyme Plus L (12L) The respective component (a) or comparative compound was added, if applicable, to the respective base formulation in amounts as indicated in Table 1. The amount of amylase as provided in Table 1 refers to active protein. Water was added to accomplish the balance to 100. […] Amylase activity at certain points in time as indicated in Table 2 was measured quantitatively by the release of the chromophore para-nitrophenol (pNP) from the substrate ([…]-blocked-pNPG7, Roche Applied Science 10880078103). The alpha-amylase degrades the substrate into smaller molecules and α-glucosidase (Roche Applied Science 11626329103), which is present in excess compared to the amylase, process these smaller products until pNP is released; the release of pNP, measured via an increase of absorption at 405 nm, is directly proportional to the amylase activity of the sample. Amylase standard: […] 120 L (Sigma 3403). […] The amylolytic activity values provided were calculated referring to the value determined in the reference formulation at the time 0. The nomenclature of formulations is as follows: the Roman number before the full stop characterizes the base formulation, the Arabian number the type of compound (A.# compound according to invention (component (a)); B.# comparative compound).

Amy2=Amplify = test: as above; format: biochemical; parameters: key: % of activity in reference formulation at time 0; conditions: storage at 37° C.
Method: as §1

[1] = base formulation I., 1.5 wt % component (a), 3 d
[2] = base formulation I., 1.5 wt % component (a), 7 d
[3] = base formulation I., 1.5 wt % component (a), 14 d
[4] = base formulation I., 1.5 wt % component (a), 21 d
[5] = base formulation I., 1.5 wt % component (a), 28 d
[6] = base formulation I., 1.5 wt % component (a), 42 d
[7] = base formulation I., 1.5 wt % component (a), T0
[8] = base formulation IV., 2.0 wt % component (a), 3 d
[9] = base formulation IV., 2.0 wt % component (a), 7 d
[10] = base formulation IV., 2.0 wt % component (a), 14 d
[11] = base formulation IV., 2.0 wt % component (a), 21 d
[12] = base formulation IV., 2.0 wt % component (a), 28 d
[13] = base formulation IV., 2.0 wt % component (a), 42 d
[14] = base formulation IV., 2.0 wt % component (a), T0
[15] = base formulation III., 1.5 wt % component (a), 3 d
[16] = base formulation III., 1.5 wt % component (a), 7 d
[17] = base formulation III., 1.5 wt % component (a), 14 d
[18] = base formulation III., 1.5 wt % component (a), 21 d
[19] = base formulation III., 1.5 wt % component (a), 28 d
[20] = base formulation III., 1.5 wt % component (a), 42 d
[21] = base formulation III., 1.5 wt % component (a), T0
[22] = base formulation V., 2.0 wt % component (a), 3 d
[23] = base formulation V., 2.0 wt % component (a), 7 d
[24] = base formulation V., 2.0 wt % component (a), 14 d
[25] = base formulation V., 2.0 wt % component (a), 21 d
[26] = base formulation V., 2.0 wt % component (a), 28 d
[27] = base formulation V., 2.0 wt % component (a), 42 d
[28] = base formulation V., 2.0 wt % component (a), T0

## CCOC(=O)CC(O)(CC(=O)OCC)C(=O)OCC [A.1, Triethylcitrate]
Amy1=Stainzyme; [1]
  amylase activity, referring to reference formulation at time 0: 98
Amy1=Stainzyme; [2]
  amylase activity, referring to reference formulation at time 0: 93
Amy1=Stainzyme; [3]
  amylase activity, referring to reference formulation at time 0: 88
Amy1=Stainzyme; [4]
  amylase activity, referring to reference formulation at time 0: 80
Amy1=Stainzyme; [5]
  amylase activity, referring to reference formulation at time 0: 74
Amy1=Stainzyme; [6]
  amylase activity, referring to reference formulation at time 0: 61
Amy1=Stainzyme; [7]
  amylase activity, referring to reference formulation at time 0: 100
Amy1=Stainzyme; [8]
  amylase activity, referring to reference formulation at time 0: 96
Amy1=Stainzyme; [9]
  amylase activity, referring to reference formulation at time 0: 92
Amy1=Stainzyme; [10]
  amylase activity, referring to reference formulation at time 0: 88
Amy1=Stainzyme; [11]
  amylase activity, referring to reference formulation at time 0: 83
Amy1=Stainzyme; [12]
  amylase activity, referring to reference formulation at time 0: 73
Amy1=Stainzyme; [13]
  amylase activity, referring to reference formulation at time 0: 61
Amy1=Stainzyme; [14]
  amylase activity, referring to reference formulation at time 0: 98
Amy2=Amplify; [15]
  amylase activity, referring to reference formulation at time 0: 98
Amy2=Amplify; [16]
  amylase activity, referring to reference formulation at time 0: 95
Amy2=Amplify; [17]
  amylase activity, referring to reference formulation at time 0: 91
Amy2=Amplify; [18]
  amylase activity, referring to reference formulation at time 0: 86
Amy2=Amplify; [19]
  amylase activity, referring to reference formulation at time 0: 78
Amy2=Amplify; [20]
  amylase activity, referring to reference formulation at time 0: 68
Amy2=Amplify; [21]
  amylase activity, referring to reference formulation at time 0: 100
Amy2=Amplify; [22]
  amylase activity, referring to reference formulation at time 0: 96
Amy2=Amplify; [23]
  amylase activity, referring to reference formulation at time 0: 91
Amy2=Amplify; [24]
  amylase activity, referring to reference formulation at time 0: 87
Amy2=Amplify; [25]
  amylase activity, referring to reference formulation at time 0: 80
Amy2=Amplify; [26]
  amylase activity, referring to reference formulation at time 0: 73
Amy2=Amplify; [27]
  amylase activity, referring to reference formulation at time 0: 62
Amy2=Amplify; [28]
  amylase activity, referring to reference formulation at time 0: 98

## CCCOC(=O)CC(O)(CC(=O)OCCC)C(=O)OCCC [A.2, Tripropylcitrate]
Amy1=Stainzyme; [1]
  amylase activity, referring to reference formulation at time 0: 100
Amy1=Stainzyme; [2]
  amylase activity, referring to reference formulation at time 0: 96
Amy1=Stainzyme; [3]
  amylase activity, referring to reference formulation at time 0: 90
Amy1=Stainzyme; [4]
  amylase activity, referring to reference formulation at time 0: 84
Amy1=Stainzyme; [5]
  amylase activity, referring to reference formulation at time 0: 79
Amy1=Stainzyme; [6]
  amylase activity, referring to reference formulation at time 0: 66
Amy1=Stainzyme; [7]
  amylase activity, referring to reference formulation at time 0: 101
Amy2=Amplify; [15]
  amylase activity, referring to reference formulation at time 0: 102
Amy2=Amplify; [16]
  amylase activity, referring to reference formulation at time 0: 97
Amy2=Amplify; [17]
  amylase activity, referring to reference formulation at time 0: 93
Amy2=Amplify; [18]
  amylase activity, referring to reference formulation at time 0: 87
Amy2=Amplify; [19]
  amylase activity, referring to reference formulation at time 0: 81
Amy2=Amplify; [20]
  amylase activity, referring to reference formulation at time 0: 71
Amy2=Amplify; [21]
  amylase activity, referring to reference formulation at time 0: 100
Amy2=Amplify; [22]
  amylase activity, referring to reference formulation at time 0: 95
Amy2=Amplify; [23]
  amylase activity, referring to reference formulation at time 0: 90
Amy2=Amplify; [24]
  amylase activity, referring to reference formulation at time 0: 84
Amy2=Amplify; [25]
  amylase activity, referring to reference formulation at time 0: 76
Amy2=Amplify; [26]
  amylase activity, referring to reference formulation at time 0: 66
Amy2=Amplify; [27]
  amylase activity, referring to reference formulation at time 0: 54
Amy2=Amplify; [28]
  amylase activity, referring to reference formulation at time 0: 98

## CCOC(=O)CC(CC(=O)OCC)(OC(C)=O)C(=O)OCC [A.5, Acetyltriethylcitrate]
Amy1=Stainzyme; [1]
  amylase activity, referring to reference formulation at time 0: 91
Amy1=Stainzyme; [2]
  amylase activity, referring to reference formulation at time 0: 80
Amy1=Stainzyme; [3]
  amylase activity, referring to reference formulation at time 0: 72
Amy1=Stainzyme; [4]
  amylase activity, referring to reference formulation at time 0: 63
Amy1=Stainzyme; [5]
  amylase activity, referring to reference formulation at time 0: 55
Amy1=Stainzyme; [6]
  amylase activity, referring to reference formulation at time 0: 37
Amy1=Stainzyme; [7]
  amylase activity, referring to reference formulation at time 0: 97
Amy2=Amplify; [15]
  amylase activity, referring to reference formulation at time 0: 96
Amy2=Amplify; [16]
  amylase activity, referring to reference formulation at time 0: 92
Amy2=Amplify; [17]
  amylase activity, referring to reference formulation at time 0: 87
Amy2=Amplify; [18]
  amylase activity, referring to reference formulation at time 0: 78
Amy2=Amplify; [19]
  amylase activity, referring to reference formulation at time 0: 71
Amy2=Amplify; [20]
  amylase activity, referring to reference formulation at time 0: 55
Amy2=Amplify; [21]
  amylase activity, referring to reference formulation at time 0: 96

## Diethylcitrate [A.7]
Amy1=Stainzyme; [1]
  amylase activity, referring to reference formulation at time 0: 96
Amy1=Stainzyme; [2]
  amylase activity, referring to reference formulation at time 0: 86
Amy1=Stainzyme; [3]
  amylase activity, referring to reference formulation at time 0: 81
Amy1=Stainzyme; [4]
  amylase activity, referring to reference formulation at time 0: 74
Amy1=Stainzyme; [5]
  amylase activity, referring to reference formulation at time 0: 63
Amy1=Stainzyme; [6]
  amylase activity, referring to reference formulation at time 0: 50
Amy1=Stainzyme; [7]
  amylase activity, referring to reference formulation at time 0: 99
Amy1=Stainzyme; [8]
  amylase activity, referring to reference formulation at time 0: 94
Amy1=Stainzyme; [9]
  amylase activity, referring to reference formulation at time 0: 88
Amy1=Stainzyme; [10]
  amylase activity, referring to reference formulation at time 0: 82
Amy1=Stainzyme; [11]
  amylase activity, referring to reference formulation at time 0: 74
Amy1=Stainzyme; [12]
  amylase activity, referring to reference formulation at time 0: 63
Amy1=Stainzyme; [13]
  amylase activity, referring to reference formulation at time 0: 52
Amy1=Stainzyme; [14]
  amylase activity, referring to reference formulation at time 0: 99
Amy2=Amplify; [15]
  amylase activity, referring to reference formulation at time 0: 96
Amy2=Amplify; [16]
  amylase activity, referring to reference formulation at time 0: 91
Amy2=Amplify; [17]
  amylase activity, referring to reference formulation at time 0: 85
Amy2=Amplify; [18]
  amylase activity, referring to reference formulation at time 0: 78
Amy2=Amplify; [19]
  amylase activity, referring to reference formulation at time 0: 70
Amy2=Amplify; [20]
  amylase activity, referring to reference formulation at time 0: 60
Amy2=Amplify; [21]
  amylase activity, referring to reference formulation at time 0: 98
Amy2=Amplify; [22]
  amylase activity, referring to reference formulation at time 0: 96
Amy2=Amplify; [23]
  amylase activity, referring to reference formulation at time 0: 87
Amy2=Amplify; [24]
  amylase activity, referring to reference formulation at time 0: 74
Amy2=Amplify; [25]
  amylase activity, referring to reference formulation at time 0: 63
Amy2=Amplify; [26]
  amylase activity, referring to reference formulation at time 0: 55
Amy2=Amplify; [27]
  amylase activity, referring to reference formulation at time 0: 47
Amy2=Amplify; [28]
  amylase activity, referring to reference formulation at time 0: 98
